Tests used:
IRE1α = assay: qPCR of spliced XBP1 (XBP1s) as readout of IRE1α activity in ARPE-19; format: cell-based, Human; conditions: ARPE-19, qPCR
Source text: (§1) RNA isolation and quantitative PCR. Total RNA was extracted from cultured cells or mouse eye RPE layer using the RNeasy Mini kit (QIAGEN). The total RNA was digested with deoxyribonuclease I to prevent amplification of genomic DNA. The total RNA then was reversed transcribed using High-Capacity cDNA Reverse Transcription Kit (ThermoFisher Scientific, cat.no. 4368814) and analyzed gene expression using SYBR Green Master Mix (ThermoFisher Scientific, cat.no. 4472908) in an Applied Biosystems StepOne real time PCR machine. GAPDH was used as a reference gene. […] After genes were amplified by real time PCR, some of the PCR products were separated by 2.5% agarose gel.

XBP1s [1] = assay: qPCR of XBP1 splicing in hfRPE; format: cell-based, Human
Source text: as §1

[2] = system: unfolded protein response (UPR) pathway; assay: RNAseq / Ingenuity Pathway Analysis of cells with dark LF cytotoxicity; format: cell-based, Human; conditions: cells with dark LF cytotoxicity vs cells rescued by treatment
Method: RNAseq. Cultured ARPE19 cells were treated with or without 15 uM A2E for 24 hours, then cells were harvested and total RNA extracted. […]. RNAseq profiles were analyzed further with Ingenuity Pathway Analysis (IPA, Qiagen).
To investigate the cellular processes leading to necroptosis, Ingenuity Pathway Analysis (IPA) was used to compare the transcriptomes of cells suffering of dark LF cytotoxicity with cells rescued by Nec7 treatment. […] The UPR is a conserved transcriptional response to the aberrant accumulation of misfolded proteins or lipids in the endoplasmic reticulum. UPR is elicited by three ER-resident sensors: PERK, IRE1α and […]. […] To evaluate the impact of UPR downregulation, the list of UPR transcripts inhibited by Nec7 was extracted and a new IPA analysis was performed for the downstream consequences (FIG. 5D).

XBP1s [3] = assay: Intravitreal treatment of DKO mice, XBP1s immunostaining of RPE flat mounts; format: in vivo, ABCA4−/− RDH8−/− double knock-out mice (DKO); conditions: 26 month old DKO mice, intraocular, a week later, vs mock treated eyes
Method: Animals. Pigmented ABCA4^−/− RDH8^−/− double knock-out mice (DKO), free of rd8 mutation, were purchased from Jackson laboratories and every 10 generations were in house backcrossed to the C57BL6J control strain, to prevent genetic drifts. Genotyping was performed at Transnetyx (Memphis, TN). Only mice with ABCA4, RDH8, RPE65-Leu450 but no crb1 mutations (retinal degeneration slow) were maintained in the colony. Controls C57BL/6J (Rpe65-Leu450, crb1negative) were also Jackson's lab. All mice were housed at Weill Cornell Medicine's animal facility under a 12 h light (˜10 lux)/12 h dark cycle environment or under complete darkness. Experimental manipulations in the dark were done under dim red light transmitted through a Kodak No. 1 safelight filter (transmittance >560 nm). No retinal degeneration or necroptosis markers were appreciably detected in 20 months or older C57BL6/N (Rpe65-Met450, crb1 positive) obtained from the NAI/NIH. All animal procedures and experiments were approved by the Animal Care and Use Committee of Weill Cornell Medical College in agreement with the guidelines established by the NIH Office of Laboratory Animal Welfare and the Association of Research for Vision and Ophthalmology (ARVO) statement for the use of animals in ophthalmic research. […]
Pharmacological treatment of mice. […] The exact volume of Mock reagent or Kira6 was determined by 10 μl Hamilton syringe. […]

[4] = system: EDN2, FGF2, GFAP, SERP, VEGF, CXCL15, XBP1s, SCAND1, CEBPA, HMGA; assay: Intravitreal treatment of DKO mice, qPCR of retinal degeneration markers in whole retina; format: in vivo, ABCA4−/− RDH8−/− double knock-out mice (DKO); conditions: total RNA from whole retina, vs control injected eyes
Method: Pharmacological treatment of mice. KIRA6 (Cayman Chemical, item no. 19151) was injected intravitreously with 1 μL total volume. KIRA6 concentration is 20 μg/ml. The control eye received an equal amount of mock reagent (DMSO). Mouse was weighed and anesthetized with Ketamine cocktail at 10 mg/kg, then mouse eyes were dilated with Tropicamide. The exact volume of Mock reagent or Kira6 was determined by 10 μl Hamilton syringe. Under surgery microscope, mouse eye was placed in the center of the field, 34 gauge of needle was inserted into mouse eye at the Ora serrata and towards ONH. Once the needle was inside the mouse eye, 2 μl of the contents in the Hamilton syringe was injected. The needle was slowly withdrawn to prevent the reflux of the solution. Nec7 (2 μL of 33 mM stock in DMSO) was intravitreally injected in the left eye and an equal amount of vehicle (DMSO) was administered to the right eye. After intravitreal injection, the mouse was placed in a warm place until it completely woke up. […]
RNA isolation and quantitative PCR. […] The total RNA then was reversed transcribed using High-Capacity cDNA Reverse Transcription Kit (ThermoFisher Scientific, cat.no. 4368814) and analyzed gene expression using SYBR Green Master Mix (ThermoFisher Scientific, cat.no. 4472908) in an Applied Biosystems StepOne real time PCR machine. […]

Compound | effect on LF-induced XBP1 splicing (XBP1s, IRE1α activity) (IRE1α) | effect on LF-induced XBP1 splicing in hfRPE (XBP1s [1]) | transcriptome pathway variation induced by treatment (IPA) [2] | XBP1s staining of whole RPE flat mounts (XBP1s [3]) | mRNA levels of markers for retinal degeneration, inflammation/angiogenesis, ER-stress and necroptosis [4]
N=C1S/C(=C\c2cn[nH]c2-c2ccc(F)cc2)C(=O)N1c1nccs1 [Nec7, Necrostatin 7] | completely abrogated | prevention | inhibition of the unfolded protein response (UPR) |  | 
CC(C)(C)c1nc(-c2ccc(NC(=O)Nc3cccc(C(F)(F)F)c3)c3ccccc23)c2c(N)nccn12 [KIRA6] |  |  |  | decreased from the center to the periphery | generalized reduction in all the tested markers

From patent US20240082221A1, “COMPOSITIONS AND METHODS FOR THE IDENTIFICATION OF COMPOUNDS THAT PROTECT AGAINST LIPOFUSCIN CYTOTOXICITY” (priority 2021, published 2024)
